Source: patent US11311522B1 (Cavion, Inc., priority 2018, dated 2022)
Read-outs that look alike come from different tables or passages of the source.

Tests used:
[1] = Brain penetration in male rats; format: in vivo; conditions: rat, 25 mg/kg
[2] = Off-target panel of enzyme and receptor binding sites, ion channels, transporters; conditions: 10 μM, 87 targets
[3] = T-CALM: plasma concentrations by 5-in-1 LC/MS/MS; format: in vivo, human; conditions: for Plasma concentration, mean: trough; for concentration at 4 h: human, plasma, oral, 4 hours post-dose
Method: Additionally, at Visit 4, a post-dose sample will be collected as close to 4 hours post-dose as possible, but within the window of 4-6 hours post-dose (i.e., a total of two PK samples are collected at Visit 4.)
Assay performances were satisfactory and met acceptance criteria for system performance suitability, quantitation range, calibration linearity, assay accuracy and precision, and assay recovery.

in vivo [4] = conditions: female, rat, po, 10 mg/kg/day
Pharmacokinetics in dogs = format: in vivo, dog; conditions: for AUC: male, dog, plasma, po, 0.5 mg/kg, read-out: AUC24
Method: (§3) The validity and reproducibility of the assays were determined, and the precision and accuracy for calibration standards and quality control samples were examined. […] The analytes were stable in plasma under the storage and assay conditions. […] Assay performances were satisfactory and met acceptance criteria for system performance suitability, quantitation range, calibration linearity, assay accuracy and precision, and assay recovery.

[5] = 90-day oral toxicology in Beagle dogs; conditions: Beagle, dog, in vivo, po
CYP2B6 = CYP2B6 mRNA induction in human hepatocytes; format: in vitro ADME
From the text: (§1) Glucuronide conjugates of the oxygenated metabolites are detected in human, monkey, and dog hepatocyte preparations. […] However, the abundance of CYP3A5, CYP2C19, and CYP2D6 in human liver microsomes is low (2%-5%) relative to the primary contributors, CYP3A4 (˜30%) and CYP2C9 (˜20%). […] Information on reproductive and developmental toxicology was obtained in a 28-day pivotal female fertility study in rats and in preliminary embryo-fetal development studies in rats and rabbits.

[6] = 4-week oral toxicology in Beagle dogs; conditions: dog, in vivo
CYP2C9 = target: T1, CYP2C9 (Homo sapiens, UniProt P11712); experiment: In vitro metabolism (liver microsomes, hepatocytes, recombinant CYPs, anti-CYP antibodies); format: in vitro ADME; conditions: recombinant CYP2C9
T1 construct: host or cells: pooled liver microsomes, hepatocytes and recombinant CYP enzymes
T1 sequence (P11712 whole entry): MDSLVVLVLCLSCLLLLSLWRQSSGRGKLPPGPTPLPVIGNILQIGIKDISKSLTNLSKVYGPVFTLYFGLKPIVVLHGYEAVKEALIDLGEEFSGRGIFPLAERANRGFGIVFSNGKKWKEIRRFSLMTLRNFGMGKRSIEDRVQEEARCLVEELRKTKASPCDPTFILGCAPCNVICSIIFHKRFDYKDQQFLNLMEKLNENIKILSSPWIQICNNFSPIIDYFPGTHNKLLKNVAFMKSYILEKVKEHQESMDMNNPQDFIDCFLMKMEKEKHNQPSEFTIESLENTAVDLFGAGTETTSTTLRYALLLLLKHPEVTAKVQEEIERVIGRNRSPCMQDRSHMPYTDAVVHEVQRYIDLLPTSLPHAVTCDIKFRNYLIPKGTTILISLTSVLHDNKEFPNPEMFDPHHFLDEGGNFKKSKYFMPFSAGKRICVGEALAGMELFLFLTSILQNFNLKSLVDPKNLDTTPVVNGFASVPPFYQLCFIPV
From the text: as §1

[7] = Phase 1 multiple-dose pharmacokinetics (PN002/Part II); conditions: for half-life / AUC / Cmax: human, plasma
[8] = Pharmacokinetics in rhesus monkeys; format: in vivo, rhesus monkey; conditions: for AUC: male, rhesus monkey, plasma, po, 2 mg/kg, read-out: AUC24
Method: as §3

[9] = target: T2, breast cancer resistance protein (BCRP) (Homo sapiens, UniProt Q9UNQ0); experiment: BCRP transport; format: in vitro ADME
T2 sequence (Q9UNQ0 1-655): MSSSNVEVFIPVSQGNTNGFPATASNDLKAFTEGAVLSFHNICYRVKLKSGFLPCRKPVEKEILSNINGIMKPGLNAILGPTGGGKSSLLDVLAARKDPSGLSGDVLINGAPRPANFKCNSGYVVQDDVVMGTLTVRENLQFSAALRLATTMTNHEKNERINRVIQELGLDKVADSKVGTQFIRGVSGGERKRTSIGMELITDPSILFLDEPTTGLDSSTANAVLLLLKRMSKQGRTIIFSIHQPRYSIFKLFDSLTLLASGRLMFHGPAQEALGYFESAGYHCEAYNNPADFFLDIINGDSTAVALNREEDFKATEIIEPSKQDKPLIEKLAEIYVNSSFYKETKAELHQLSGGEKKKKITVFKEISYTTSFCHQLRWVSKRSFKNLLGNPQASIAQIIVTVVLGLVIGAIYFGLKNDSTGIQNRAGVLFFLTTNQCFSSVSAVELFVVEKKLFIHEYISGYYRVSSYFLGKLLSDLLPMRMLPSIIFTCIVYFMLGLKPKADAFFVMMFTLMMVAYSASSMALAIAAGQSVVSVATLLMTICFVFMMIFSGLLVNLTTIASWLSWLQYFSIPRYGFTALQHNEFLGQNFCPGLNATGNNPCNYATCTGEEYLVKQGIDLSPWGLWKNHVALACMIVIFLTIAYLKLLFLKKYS
From the text: as §1

[10] = In vitro plasma protein binding, dog; format: in vitro ADME
From the text: (§2) CX-8998 distributes readily to the brain in rats and to brain and cerebral spinal fluid (CSF) in dogs.

[11] = Single-dose toxicokinetic study in dogs; format: in vivo; conditions: dog, plasma, po, 800 mg/kg
[12] = In vitro plasma protein binding, monkey; format: in vitro ADME
From the text: as §2

in vivo [13] = conditions: Beagle, dog, po, 300 mg/kg
[14] = brain and plasma, oral, read-out: Brain-to-plasma ratio
[15] = dog plasma, read-out: In vitro plasma protein binding (converted)
[16] = read-out: Free fraction in dog plasma
[17] = M01, Day 7, CX-8998 2 mg once daily
[18] = M01, Day 7, CX-8998 18 mg once daily

## C[C@@H](NC(=O)Cc1ccc(C(C)(C)O)cc1)c1ccc(OCC(F)(F)F)cn1 [M02]
[1]; [14]
  Kp at 2 h: 0.32
[2]
  Off-target effects (≥50% inhibition or stimulation): No significant results
[3]; Visit 2 (Day 8), 4 mg BID
  Plasma concentration, mean: 168 nM
[3]; Visit 3 (Day 15), 8 mg BID
  Plasma concentration, mean: 325 nM
[3]; Visit 4 (Day 28), 10 mg BID
  Plasma concentration, mean: 406 nM
  concentration at 4 h: 438 nM
In vivo [4]
  AUC: 31.7 µM·h
  Cmax: 5400 nM
Pharmacokinetics in dogs
  AUC: 7.8 µM·h
[5]; female, 10 mg/kg
  AUC: 103 µM·h
[5]; female, 30 mg/kg
  AUC: 209 µM·h
[5]; female, 100 mg/kg/day
  AUC: 339 µM·h
[5]; male, 10 mg/kg
  AUC: 149 µM·h
[5]; male, 30 mg/kg
  AUC: 213 µM·h
[5]; male, 100 mg/kg/day
  AUC: 1800 µM·h
CYP2B6
  CYP2B6 induction: mild to moderate inducers
[6]
  Safety margin (AUC24) at the NOEL over expected clinical exposure: ~23 fold
CYP2C9
  KM for CYP2C9 reactions (formation): ~3 µM
[7]; 2 mg
  half-life: 15 h
[7]; 2 mg, AUC24, M02, Day 7, CX-8998 2 mg once daily
  AUC: 0.93 µM·h
[7]; 2 mg, M02, Day 7, CX-8998 2 mg once daily
  Cmax: 54 nM
[7]; 4 mg
  half-life: 15.4 h
[7]; 4 mg, AUC24, M02, Day 7, CX-8998 4 mg once daily
  AUC: 1.86 µM·h
[7]; 4 mg, M02, Day 7, CX-8998 4 mg once daily
  Cmax: 106 nM
[7]; 8 mg
  half-life: 12.2 h
[7]; 8 mg, AUC24, M02, Day 7, CX-8998 8 mg once daily
  AUC: 3.54 µM·h
[7]; 8 mg, M02, Day 7, CX-8998 8 mg once daily
  Cmax: 219 nM
[7]; 12 mg
  half-life: 14.5 h
[7]; 12 mg, AUC24, M02, Day 7, CX-8998 12 mg once daily
  AUC: 4.55 µM·h
[7]; 12 mg, M02, Day 7, CX-8998 12 mg once daily
  Cmax: 287 nM
[7]; 18 mg
  half-life: 12.8 h
[7]; 18 mg, AUC24, M02, Day 7, CX-8998 18 mg once daily
  AUC: 7.97 µM·h
[7]; 18 mg, M02, Day 7, CX-8998 18 mg once daily
  Cmax: 481 nM
[7]; male, oral
  half-life: 12.2 to 15.4 h
[8]
  AUC: 36.6 µM·h
[9]; up to 30 μM
  Inhibition of BCRP-mediated transport: did not inhibit
[10]; [15]
  fraction unbound: 0.18
[10]; dogs, read-out: free fraction
  fraction unbound: 0.18
[10]; [16]
  fraction unbound: 0.18
[11]; female
  Tmax: 8 h
[11]; male
  Tmax: 8 h
[12]
  fraction unbound: 0.17

## C=C(C)c1ccc(CC(=O)N[C@H](C)c2ccc(OCC(F)(F)F)cn2)cc1 [M01]
[1]; [14]
  Kp at 2 h: 0.27
[1]; brain, po, read-out: Brain: Plasma Ratio
  Kp at 2 h: 0.27
[3]; Visit 2 (Day 8), 4 mg BID
  Plasma concentration, mean: 398 nM
[3]; Visit 3 (Day 15), 8 mg BID
  Plasma concentration, mean: 812 nM
[3]; Visit 4 (Day 28), 10 mg BID
  Plasma concentration, mean: 1023 nM
  concentration at 4 h: 976 nM
In vivo [4]
  AUC: 8.11 µM·h
  Cmax: 2660 nM
Pharmacokinetics in dogs; Dog, Male, single oral dose 0.5 mg/kg of CX-8998
  Ratio of AUC24 (metabolite/CX-8998): 0.21
Pharmacokinetics in dogs
  AUC: 1.4 µM·h
[5]; female, 10 mg/kg
  AUC: 38.6 µM·h
[5]; female, 30 mg/kg
  AUC: 103 µM·h
[5]; female, 100 mg/kg/day
  AUC: 431 µM·h
[5]; male, 10 mg/kg
  AUC: 54.9 µM·h
[5]; male, 30 mg/kg
  AUC: 121 µM·h
[5]; male, 100 mg/kg/day
  AUC: 1770 µM·h
In vivo [13]; female, CSF
  Kp at 24 h: 0.112
  concentration at 24 h: 112 nM
In vivo [13]; female, brain (frontal cortex)
  Kp at 24 h: 0.696
  concentration at 24 h: 696 nM
In vivo [13]; female, brain (thalamus)
  Kp at 24 h: 0.772
  concentration at 24 h: 772 nM
In vivo [13]; male, CSF
  Kp at 24 h: 0.149
  concentration at 24 h: 149 nM
In vivo [13]; male, brain (frontal cortex)
  Kp at 24 h: 0.19
  concentration at 24 h: 190 nM
In vivo [13]; male, brain (thalamus)
  Kp at 24 h: 0.208
  concentration at 24 h: 208 nM
CYP2B6
  CYP2B6 induction: mild to moderate inducers
[6]
  Safety margin (AUC24) at the NOEL over expected clinical exposure: ~6 fold
CYP2C9
  KM for CYP2C9 reactions (formation): ~3 µM
[7]; [17]
  AUC Ratio, metabolite to parent: 1.12
  Cmax Ratio, metabolite to parent: 0.36
[7]; M01, Day 7, CX-8998 4 mg once daily
  Cmax Ratio, metabolite to parent: 0.36
[7]; M01, Day 7, CX-8998 12 mg once daily
  AUC Ratio, metabolite to parent: 1.15
[7]; [18]
  AUC Ratio, metabolite to parent: 1.34
  Cmax Ratio, metabolite to parent: 0.57
[7]; based on potency, free fraction, maximum Cmax ratios
  Relative potency (CX-8998 = 1.00): 0.27
[7]; 2 mg
  half-life: 25.8 h
[7]; 2 mg, AUC24, M01, Day 7, CX-8998 2 mg once daily
  AUC: 1.52 µM·h
[7]; 2 mg, M01, Day 7, CX-8998 2 mg once daily
  Cmax: 76 nM
[7]; 4 mg, AUC24, M01, Day 7, CX-8998 4 mg once daily
  AUC: 2.83 µM·h
[7]; 4 mg, M01, Day 7, CX-8998 4 mg once daily
  Cmax: 136 nM
[7]; 12 mg
  half-life: 22.6 h
[7]; 18 mg
  half-life: 19 h
[7]; 18 mg, AUC24, M01, Day 7, CX-8998 18 mg once daily
  AUC: 18.3 µM·h
[7]; 18 mg, M01, Day 7, CX-8998 18 mg once daily
  Cmax: 865 nM
[7]; male, oral
  half-life: 19 to 25.8 h
[8]; Monkey, Male, single oral dose 2 mg/kg of CX-8998
  Ratio of AUC24 (metabolite/CX-8998): 0.24
[8]
  AUC: 0.5 µM·h
[9]; 30 μM
  Inhibition of BCRP transport: 57%
[10]; [15]
  fraction unbound: 0.003
[10]; dogs, read-out: free fraction
  fraction unbound: 0.003
[10]; [16]
  fraction unbound: 0.003
[11]; female
  Tmax: 8 h
[11]; male
  Tmax: 8 h
[12]
  fraction unbound: 0.004
